These results are taken from the C3SDB collision cross section collection.

The conditions of data set [1]: instrument: DT, single field, calibrated with Agilent tune mix (Agilent).
For data set [2] the following is noted: instrument: DT, stepped-field.
The conditions of data set [3]: instrument: DT, single field, calibrated with Agilent tune mix (Agilent). The source holds these as a separate data set.
For data set [4] the following is noted: instrument: DT, stepped-field. The source holds these as a separate data set.

Consider `CCCCCCCCCCCCCCCC(=O)N[C@@H](CO)[C@H](O)CCCCCCCCCCCCCCC` [Cer(34:0)], for which, in data set [1] ([M+HCOO]-), the “collision cross section (N2)” value turned out to be 251.8 Å².

On to `CCCCCCCCCCCCC=CC[C@@H](O)[C@H](CO)NC(=O)CCCCCCCCCCCCCCC` [Cer(34:1)], for which the “collision cross section (N2)” value was found to be 250.4 Å² in data set [1] ([M+HCOO]-) and 253.6 Å² in data set [1] ([M+H]+).

Take `CCCCCCCCCCCCC=CC[C@@H](O)[C@H](CO)NC(=O)CCCCCCCCCCCCCCCCC` [Cer(36:01)]: the “collision cross section (N2)” value in data set [2] ([M+H-H2O]+) is 257.25 Å².

As to `CCCCCCCCCCCCC=CC[C@@H](O)[C@H](CO)NC(=O)CCCCCCCCCCCCCCCCC` [Cer(36:1)], the “collision cross section (N2)” value in data set [1] ([M+HCOO]-) stood at 257.6 Å²; in data set [1] ([M+H]+), 261.6 Å²; in data set [1] ([M+Na]+), 268.6 Å²; in data set [1] ([M-H]-), 248.6 Å².

Turning to `CCCCCCCCCCCCCCCCCCCCCC(=O)N[C@@H](CO)[C@H](O)CCCCCCCCCCCCCCC` [Cer(40:0)], the “collision cross section (N2)” value turned out to be 272 Å² in data set [1] ([M+HCOO]-), 274.7 Å² in data set [1] ([M+H]+) and 262.1 Å² in data set [1] ([M-H]-).

Take `CCCCCCCCCCCCCCCCCCCCCC(=O)N[C@@H](CO)[C@H](O)CCCCCCCCCCCCCCC` [Cer(40:00)]: the “collision cross section (N2)” value in data set [2] ([M+H]+) is 274.03 Å².

`CCCCCCCCCCCCC=CC[C@@H](O)[C@H](CO)NC(=O)CC=CCCCCCCCCCCCCCCCCCCC` [Cer(41:2)]: the “collision cross section (N2)” value in data set [1] ([M+H]+) was 273.5 Å²; in data set [1] ([M+Na]+), 273.8 Å².

As for `CCCCCCCCCCCCCCCCCCCCCCCC(=O)N[C@@H](CO)[C@H](O)CCCCCCCCCCCCCCC` [Cer(42:00)], the “collision cross section (N2)” value in data set [2] ([M+H]+) is reported as 280.05 Å²; in data set [2] ([M+Na]+), 281.85 Å².

For `CCCCCCCCCCCCC=CC[C@@H](O)[C@H](CO)NC(=O)CC=CCCCCCCCCCCCCCCCCCCCCC` [Cer(43:02)], the “collision cross section (N2)” value in data set [2] ([M+H-H2O]+) stood at 275.52 Å².

Take `CCCCCCCCCCCCC=CC[C@@H](O)[C@H](CO)NC(=O)CCCCCCCCCCCCCCCCCCCCCCCCC` [Cer(44:1)]: the “collision cross section (N2)” value in data set [1] ([M+H]+) was 284.8 Å²; in data set [1] ([M+Na]+), 285 Å².

For `CC/C=C\C/C=C\C/C=C\C/C=C\C/C=C\C/C=C\CCC(=O)O[C@@H](CO)COC(=O)CCCCCCCCCCCCCCCCCCC` [DG(42:6)], the “collision cross section (N2)” value in data set [1] ([M+NH4]+) was determined as 280.3 Å².

As to `CCCCCCCCCCCCC=CC[C@@H](O)[C@H](CO[C@@H]1O[C@H](CO)[C@@H](O)C(O)C1O)NC(=O)CCCCCCCCCCCCCCC` (some centres undefined) [GlcCer(34:01)], the “collision cross section (N2)” value in data set [2] ([M+Na]+) stood at 278.95 Å².

Take `CCCCCCCCCCCCC=CC[C@@H](O)[C@H](CO[C@@H]1O[C@H](CO)[C@@H](O)C(O)C1O)NC(=O)CC=CCCCCCCCCCCCCCCCC` (some centres undefined) [GlcCer(38:02)]: the “collision cross section (N2)” value was 287.87 Å² in data set [2] ([M+H]+) and 287.34 Å² in data set [2] ([M+Na]+).

Regarding `CCCCCCCCCCCCC=CC[C@@H](O)[C@H](CO[C@@H]1O[C@H](CO)[C@@H](O)C(O)C1O)NC(=O)CC=CCC=CCCCCCCCCCCCCC` (some centres undefined) [GlcCer(38:03)], the “collision cross section (N2)” value in data set [2] ([M+H]+) is listed as 284.43 Å².

On to `CCCCCCCCCCCCCCCCCCCCCC(=O)N[C@@H](CO[C@@H]1O[C@H](CO)[C@@H](O)C(O)C1O)[C@H](O)CCCCCCCCCCCCCCC` (some centres undefined) [GlcCer(40:00)], for which the “collision cross section (N2)” value in data set [2] ([M+Cl]-) is reported as 293.17 Å²; in data set [2] ([M+HCOO]-), 298.07 Å²; in data set [2] ([M+H]+), 296.24 Å²; in data set [2] ([M+Na]+), 297.72 Å².

`CCCCCCCCCCCCCCC(=O)OC[C@@H](O)COP(=O)([O-])OCC[N+](C)(C)C` [LPC(15:0)]: the “collision cross section (N2)” value in data set [1] ([M+H]+) is on record as 225 Å².

Regarding `CCCCCCCCCCCCCCCCC(=O)OC[C@@H](O)COP(=O)([O-])OCC[N+](C)(C)C` [LPC(17:0)], the “collision cross section (N2)” value in data set [1] ([M+HCOO]-) is on record as 237.7 Å².

Take `CCCCC/C=C\C/C=C\CCCCCCCCCC(=O)OC[C@@H](O)COP(=O)([O-])OCC[N+](C)(C)C` [LPC(20:2)]: the “collision cross section (N2)” value in data set [1] ([M+H]+) stood at 233.9 Å².

Turning to `CCCCCCCC/C=C\CCCCCCCCCC(=O)OC[C@@H](O)COP(=O)(O)OCCN` [LPE(20:1)], in data set [1] ([M-H]-), the “collision cross section (N2)” value was 218.4 Å².

Take `CCCCCCCCCCCCCCCCC(=O)OC[C@@H](O)COP(=O)(O)OC[C@H](N)C(=O)O` [LPS(17:0)]: the “collision cross section (N2)” value in data set [1] ([M-H]-) is listed as 220.1 Å².

For the compound `CCCCCCCC/C=C\CCCCCCCC(=O)OC[C@@H](O)COP(=O)(O)OC[C@H](N)C(=O)O` [LPS(18:1)], the “collision cross section (N2)” value in data set [1] ([M+H]+) is reported as 224.2 Å²; in data set [1] ([M+Na]+), 227 Å²; in data set [1] ([M-H]-), 220.5 Å².

Consider `CCCCCCCCCC/C=C\CCCCCCCCCC(=O)OC[C@@H](O)COP(=O)(O)OC[C@H](N)C(=O)O` [LPS(22:1)], for which the “collision cross section (N2)” value in data set [1] ([M-H]-) is 234.2 Å².

Consider `CCCCCCCC/C=C\CCCCCCCCCC(=O)O[C@H](COC(=O)CCCCCCCCCCC)COP(=O)(O)O` [PA(32:1)], for which the “collision cross section (N2)” value in data set [1] ([M-H]-) is given as 249 Å².

As for `CCCC/C=C\CCCCCCCC(=O)OC[C@H](COP(=O)(O)O)OC(=O)CCCCCCCCCCCCCCCCCCCCC` [PA(36:1)], the “collision cross section (N2)” value in data set [1] ([M+NH4]+) worked out at 277.7 Å²; in data set [1] ([M+Na]+), 275.6 Å²; in data set [1] ([M-H]-), 261.6 Å².

`CCCCCCCCCC/C=C\CCCCCCCCCC(=O)O[C@H](COC(=O)CCCCCCCCCCCC)COP(=O)([O-])OCC[N+](C)(C)C` [PC(35:1)]: the “collision cross section (N2)” value in data set [1] ([M+H]+) is 289.2 Å².

On to `CCCCCC/C=C\CCCCCCCCCCCC(=O)O[C@H](COC(=O)CCCCCCCCCCCCCCCCC)COP(=O)([O-])OCC[N+](C)(C)C` [PC(38:1)], for which the “collision cross section (N2)” value in data set [1] ([M+H]+) turned out to be 298.8 Å².

Take `CCCCCCCCCCCCCCCCCCCC(=O)O[C@H](COC(=O)CCCCCCCCCCC)COP(=O)(O)OCCN` [PE(32:0)]: the “collision cross section (N2)” value in data set [1] ([M+H]+) was determined as 271.4 Å².

With `CCCCCCCCCCCCCCCCCCCCCC(=O)OC[C@H](COP(=O)(O)OCCN)OC(=O)CCCCCCCCCCC` [PE(34:0)], the “collision cross section (N2)” value in data set [1] ([M+H]+) was 277.5 Å².

As to `CCCCC/C=C\C/C=C\CCCCCCCC(=O)OC[C@H](COP(=O)(O)O[C@H]1C(O)C(O)C(O)[C@@H](O)C1O)OC(=O)CCCCCCCCC/C=C\CCCCCCCCCC` (some centres undefined) [PI(40:3)], the “collision cross section (N2)” value in data set [1] ([M-H]-) turned out to be 299.2 Å².

As for `c1ncc2[nH]cnc2n1` [Purine], the “collision cross section (N2)” value in data set [3] ([M+H]+) was found to be 121.8 Å²; in data set [4] ([M+H]+), 125.4 Å².

As to `Cc1ncc(CO)c(C=O)c1O` [Pyridoxal], the “collision cross section (N2)” value in data set [3] ([M+H]+) stood at 130.5 Å²; in data set [4] ([M+H]+) it was 135.42 Å².

Take `Cc1ncc(CO)c(CO)c1O` [Pyridoxine]: the “collision cross section (N2)” value stood at 134.6 Å² in data set [3] ([M+H]+), 130.75 Å² in data set [3] ([M-H]-), 135.69 Å² in data set [4] ([M+H]+) and 148.49 Å² in data set [4] ([M+Na]+).

Take `OC[C@H]1O[C@H](OC[C@H]2O[C@H](O[C@]3(CO)O[C@H](CO)[C@@H](O)[C@@H]3O)[C@H](O)[C@@H](O)[C@@H]2O)[C@H](O)[C@@H](O)[C@H]1O` [Raffinose]: the “collision cross section (N2)” value in data set [3] ([M+H]+) turned out to be 209 Å²; in data set [4] ([M+Na]+), 208.72 Å².

Regarding `N[C@@H](CSCC(=O)O)C(=O)O` [S-Carboxymethyl-L-cysteine], the “collision cross section (N2)” value in data set [3] ([M+H]+) is 137.2 Å²; in data set [4] ([M+H]+), 141.13 Å²; in data set [4] ([M+Na]+), 142.13 Å².

For the compound `OC[C@H]1O[C@H](OC[C@H]2O[C@H](OC[C@H]3O[C@H](O[C@]4(CO)O[C@H](CO)[C@@H](O)[C@@H]4O)[C@H](O)[C@@H](O)[C@@H]3O)[C@H](O)[C@@H](O)[C@H]2O)[C@H](O)[C@@H](O)[C@H]1O` [Stachyose], the figures for the “collision cross section (N2)” value in data set [3] ([M+Na]+), in data set [3] ([M-H]-) and in data set [4] ([M+Na]+) were 234.1 Å², 221.12 Å² and 236.4 Å², respectively.

For `CC/C=C\C/C=C\C/C=C\C/C=C\C/C=C\C/C=C\CCC(=O)OC[C@@H](COC(=O)CCCCCCC/C=C\CCCCCCCCC)OC(=O)CCCCCCC/C=C\CCCCCCCCC` [TG(60:8)], in data set [1] ([M+NH4]+), the “collision cross section (N2)” value was 338.1 Å².

In the case of `CC/C=C\C/C=C\C/C=C\C/C=C\C/C=C\CCCCCC(=O)OC[C@@H](COC(=O)CCCC/C=C\C/C=C\C/C=C\C/C=C\CC)OC(=O)CCCCCC/C=C\C/C=C\C/C=C\CCCCC` [TG(60:12)], the “collision cross section (N2)” value in data set [1] ([M+NH4]+) is listed as 331.7 Å².

Regarding `CCCCC/C=C\C/C=C\CCCCCCCC(=O)OC[C@H](COC(=O)CCCCCCCCC/C=C\CCCCCCCCCC)OC(=O)CCCCCCCCC/C=C\CCCCCCCCCC` [TG(62:4)], the “collision cross section (N2)” value in data set [1] ([M+NH4]+) turned out to be 345.8 Å².

Turning to `CC/C=C\C/C=C\C/C=C\CCCCCCCC(=O)OC[C@H](COC(=O)CCCCCCCCCCC/C=C\C/C=C\CCCCC)OC(=O)CCCCCCCCC/C=C\CCCCCCCCCC` [TG(62:6)], the “collision cross section (N2)” value in data set [1] ([M+NH4]+) is 344.1 Å².

On to `CC/C=C\C/C=C\C/C=C\C/C=C\C/C=C\C/C=C\CCC(=O)OC[C@@H](COC(=O)CCCC/C=C\C/C=C\C/C=C\C/C=C\CC)OC(=O)CCCCCCCC/C=C\C/C=C\C/C=C\CCCCC` [TG(62:13)], for which, in data set [1] ([M+NH4]+), the “collision cross section (N2)” value stood at 335.7 Å².

In the case of `C[C@]12CC[C@H]3[C@@H](CCC4=CC(=O)CC[C@@]43C)[C@@H]1CC[C@@H]2O` [Testosterone], the “collision cross section (N2)” value was found to be 172.7 Å² in data set [3] ([M+H]+), 175.64 Å² in data set [3] ([M-H]-), 183.82 Å² in data set [4] ([M+H]+) and 206.07 Å² in data set [4] ([M+Na]+).

On to `Cc1cn([C@H]2C[C@H](O)[C@@H](CO)O2)c(=O)[nH]c1=O` [Thymidine], for which the “collision cross section (N2)” value is reported as 161 Å² in data set [3] ([M+Na]+), 151.22 Å² in data set [3] ([M-H]-) and 164.51 Å² in data set [4] ([M+Na]+).
